# Measured values from patent US20240016781A1, “TREATMENT OF KRAS MUTANT CANCERS” (MEI Pharma, Inc., priority 2020, published 2024).
# Where two headings read alike, the source gives them in different places.
# Legend:
# Experiment in all cases: 72-hour CellTiter-Glo 2.0 growth inhibition screen (single agent, 9x9 combination dose matrix);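 for Best CI Level: inhibition effect level at which the best CI was calculated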
# Type in all cases: cell-based
# [1] = test system: KYSE-410; conditions: for EC50: KYSE-410, 72 h; for Best CI Level: unit assumed;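 for Best CI Level: inhibition effect level at which the best CI was calculated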
# [2] = test system: TOV-21G;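 for Best CI Level: inhibition effect level at which the best CI was calculated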
# [3] = test system: NCI-H23;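 for Best CI Level: inhibition effect level at which the best CI was calculated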
# [4] = test system: AsPC-1;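 for Best CI Level: inhibition effect level at which the best CI was calculated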
# [5] = test system: SW48 KRAS (G12D/+); conditions: for Best CI Level: unit assumed;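 for Best CI Level: inhibition effect level at which the best CI was calculated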
# [6] = Homo sapiens, KYSE-410, Esophageal, Additional Single Agent Responses (inhibition, % I), 72 h
# [7] = Homo sapiens, KYSE-410, Esophageal, growth inhibition (GI) curve, single agent, 72 h
# [8] = Homo sapiens, KYSE-410, Esophageal, Additional Single Agent Responses, 72 h, read-out: Max Response (% I)
# [9] = Homo sapiens, KYSE-410, Esophageal, growth inhibition (GI), single agent, 72 h, read-out: Max Response (% GI)
# [10] = KYSE-410 (KRAS G12C), enhancer + MEI-522 (Voruciclib), 72 h;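 for Best CI Level: inhibition effect level at which the best CI was calculated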
# [11] = KYSE-410, Esophageal, Additional Single Agent Responses (inhibition, % I), 72 h
# [12] = KYSE-410, Esophageal, growth inhibition (GI), AUC, single agent, 72 h
# [13] = enhancer combined with MEI-522 (Voruciclib), KYSE-410 (Esophageal), 72 hours, inhibition data
# [14] = Homo sapiens, TOV21G, TOV-21G, Ovary, Additional Single Agent Responses (inhibition, % I), 72 h
# [15] = Homo sapiens, TOV21G, TOV-21G, Ovary, Additional Single Agent Responses, 72 h, read-out: Max Response (% I)
# [16] = Homo sapiens, TOV21G, TOV-21G, Ovary, growth inhibition (GI), single agent, 72 h, read-out: Max Response (% GI)
# [17] = TOV-21G (KRAS G13C), enhancer + MEI-522 (Voruciclib), 72 h;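 for Best CI Level: inhibition effect level at which the best CI was calculated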
# [18] = TOV-21G, Ovary, Additional Single Agent Responses (inhibition, % I), 72 h
# [19] = TOV-21G, Ovary, growth inhibition (GI), AUC, single agent, 72 h
# [20] = enhancer combined with MEI-522 (Voruciclib), TOV-21G (Ovary), 72 hours, inhibition data
# [21] = Homo sapiens, NCI-H23, NCl-H23, Lung, Additional Single Agent Responses (inhibition, % I), 72 h
# [22] = NCl-H23 (KRAS G12C), enhancer + MEI-522 (Voruciclib), 72 h
# [23] = enhancer combined with MEI-522 (Voruciclib), NCl-H23 (Lung), 72 hours, inhibition data
# [24] = AsPC-1 (KRAS G12D), enhancer + MEI-522 (Voruciclib), 72 h;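 for Best CI Level: inhibition effect level at which the best CI was calculated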
# [25] = AsPC-1, Pancreas, Additional Single Agent Responses (inhibition, % I), 72 h
# [26] = AsPC-1, Pancreas, growth inhibition (GI), AUC, single agent, 72 h
# [27] = Homo sapiens, ASPC1, AsPC-1, Pancreas, Additional Single Agent Responses (inhibition, % I), 72 h
# [28] = Homo sapiens, ASPC1, AsPC-1, Pancreas, Additional Single Agent Responses, 72 h, read-out: Max Response (% I)
# [29] = Homo sapiens, ASPC1, AsPC-1, Pancreas, growth inhibition (GI), single agent, 72 h, read-out: Max Response (% GI)
# [30] = enhancer combined with MEI-522 (Voruciclib), AsPC-1 (Pancreas), 72 hours, inhibition data
# [31] = SW48 KRAS (G12D/+), Colorectal, Additional Single Agent Responses (inhibition, % I), 72 h
# [32] = SW48 KRAS (G12D/+), Colorectal, growth inhibition (GI), AUC, single agent, 72 h
# [33] = SW48 KRAS (G12D/+), enhancer + MEI-522 (Voruciclib), 72 h
# [34] = enhancer combined with MEI-522 (Voruciclib), SW48 KRAS (G12D/+) (Colorectal), 72 hours, inhibition data
structure (smiles),measurement,setting,value
C=CC(=O)N1CCN(c2nc(=O)n(-c3c(C)ccnc3C(C)C)c3nc(-c4c(O)cccc4F)c(F)cc23)[C@@H](C)C1 [AMG510],EC50,[1]; [6],5.8 nM
same,EC50,[1]; [7],6 nM
same,Emax,[1]; [8],20%
same,Emax,[1]; [9],24%
same,Best CI,[1]; [10],1.14
same,Bliss Volume,[1]; [10],1.47
same,HSA volume,[1]; [10],2.26
same,Loewe Volume,[1]; [10],2.48
same,Synergy Score,[1]; [10],1.71
same,Response Area,[1]; [11],0.88
same,Response Area,[1]; [12],1.06
same,Best CI,[1]; [13],1.14
same,Bliss Volume,[1]; [13],1.06
same,HSA volume,[1]; [13],1.87
same,Loewe Volume,[1]; [13],2.13
same,Synergy Score,[1]; [13],1.19
same,Best CI Level,[1]; [13],45%
same,EC50,[2]; [14],3000 nM
same,Emax,[2]; [15],7%
same,Emax,[2]; [16],9%
same,Best CI,[2]; [17],0.37
same,Bliss Volume,[2]; [17],2.49
same,HSA volume,[2]; [17],−6.11
same,Loewe Volume,[2]; [17],−3.64
same,Synergy Score,[2]; [17],0.49
same,Response Area,[2]; [18],−0.01
same,Response Area,[2]; [19],−0.01
same,Best CI,[2]; [20],0.45
same,Best CI Level,[2]; [20],20
same,Bliss Volume,[2]; [20],2.55
same,HSA volume,[2]; [20],−4.28
same,Loewe Volume,[2]; [20],−2.46
same,Synergy Score,[2]; [20],0.33
same,EC50,[3]; [21],6.7 nM
same,IC50,[3]; [21],157 nM
same,Emax,"[3]; Homo sapiens, NCI-H23, NCl-H23, Lung, Additional Single Agent Responses, 72 h, read-out: Max Response (% I)",56%
same,GI50,"[3]; Homo sapiens, NCI-H23, NCl-H23, Lung, growth inhibition (GI) curve, single agent, 72 h",23.2 nM
same,Emax,"[3]; Homo sapiens, NCI-H23, NCl-H23, Lung, growth inhibition (GI), single agent, 72 h, read-out: Max Response (% GI)",71%
same,Best CI,[3]; [22],0.76
same,Bliss Volume,[3]; [22],8.97
same,HSA volume,[3]; [22],6.92
same,Loewe Volume,[3]; [22],6.28
same,Synergy Score,[3]; [22],8.27
same,Response Area,"[3]; NCl-H23, Lung, Additional Single Agent Responses (inhibition, % I), 72 h",2.82
same,Response Area,"[3]; NCl-H23, Lung, growth inhibition (GI), AUC, single agent, 72 h",3.60
same,Best CI,[3]; [23],0.53
same,Best CI Level,[3]; [23],80
same,Bliss Volume,[3]; [23],1.69
same,HSA volume,[3]; [23],4.54
same,Loewe Volume,[3]; [23],3.98
same,Synergy Score,[3]; [23],3.46
same,Best CI,[4]; [24],0.47
same,Bliss Volume,[4]; [24],2.91
same,HSA volume,[4]; [24],−3.63
same,Loewe Volume,[4]; [24],0.38
same,Synergy Score,[4]; [24],0.82
same,Response Area,[4]; [25],0.00
same,Response Area,[4]; [26],0.00
same,EC50,[4]; [27],3000 nM
same,Emax,[4]; [28],6%
same,Emax,[4]; [29],8%
same,Best CI,[4]; [30],0.64
same,Best CI Level,[4]; [30],20
same,Bliss Volume,[4]; [30],1.95
same,HSA volume,[4]; [30],−2.52
same,Loewe Volume,[4]; [30],0.26
same,Synergy Score,[4]; [30],0.32
same,Bliss Volume,[5],−0.98
same,EC50,"[5]; Homo sapiens, SW48, 72 h",3000 nM
same,Emax,"[5]; Homo sapiens, SW48, 72 h, read-out: Max Response (% GI)",15%
same,Emax,"[5]; Homo sapiens, SW48, 72 h, read-out: Max Response (% I)",11%
same,Response Area,[5]; [31],0.00
same,Response Area,[5]; [32],0.00
same,Best CI,[5]; [33],0.55
same,Bliss Volume,[5]; [33],0.17
same,Loewe Volume,[5]; [33],0.13
same,Synergy Score,[5]; [33],2.74
same,Best CI,[5]; [34],1.38
same,Loewe Volume,[5]; [34],−0.76
same,Synergy Score,[5]; [34],0.86
same,Best CI Level,[5]; [34],20%
CC[C@@H]1C(=O)N(C)c2cnc(Nc3ccc(C(=O)N[C@H]4CC[C@H](N5CCN(CC6CC6)CC5)CC4)cc3OC)nc2N1C(C)C [Volasertib],EC50,[1]; [6],8.6 nM
same,EC50,[1]; [7],8.5 nM
same,IC50,[1]; [6],13.1 nM
same,Emax,[1]; [8],74%
same,GI50,[1]; [7],10.1 nM
same,Emax,[1]; [9],89%
same,Best CI,[1]; [10],1.85
same,Bliss Volume,[1]; [10],−3.04
same,HSA volume,[1]; [10],−2.10
same,Loewe Volume,[1]; [10],−3.58
same,Synergy Score,[1]; [10],0.91
same,Response Area,[1]; [11],3.52
same,Response Area,[1]; [12],4.24
same,Best CI,[1]; [13],0.40
same,Bliss Volume,[1]; [13],−3.11
same,HSA volume,[1]; [13],−1.71
same,Loewe Volume,[1]; [13],−2.95
same,Synergy Score,[1]; [13],0.62
same,Best CI Level,[1]; [13],70%
same,EC50,"[2]; Homo sapiens, TOV21G, 72 h, TOV-21G, Ovary, Additional Single Agent Responses (inhibition, % I)",10 nM
same,EC50,"[2]; Homo sapiens, TOV21G, 72 h, TOV-21G, Ovary, growth inhibition (GI) curve, single agent",13.8 nM
same,IC50,[2]; [14],11.6 nM
same,Emax,[2]; [15],89%
same,GI50,"[2]; Homo sapiens, TOV21G, TOV-21G, Ovary, growth inhibition (GI) curve, single agent, 72 h",8.4 nM
same,Emax,[2]; [16],163%
same,Best CI,[2]; [17],0.56
same,Bliss Volume,[2]; [17],2.45
same,HSA volume,[2]; [17],−4.18
same,Loewe Volume,[2]; [17],−6.03
same,Synergy Score,[2]; [17],1.71
same,Response Area,[2]; [18],4.33
same,Response Area,[2]; [19],7.56
same,Best CI,[2]; [20],0.76
same,Best CI Level,[2]; [20],20
same,Bliss Volume,[2]; [20],−1.60
same,HSA volume,[2]; [20],−1.29
same,Loewe Volume,[2]; [20],−1.80
same,Synergy Score,[2]; [20],0.60
same,Best CI,[4]; [24],0.51
same,Bliss Volume,[4]; [24],−1.02
same,HSA volume,[4]; [24],0.04
same,Loewe Volume,[4]; [24],−0.85
same,Synergy Score,[4]; [24],1.87
same,Response Area,[4]; [25],3.11
same,Response Area,[4]; [26],4.36
same,EC50,"[4]; Homo sapiens, ASPC1, 72 h, AsPC-1, Pancreas, Additional Single Agent Responses (inhibition, % I), 72 h",12.2 nM
same,EC50,"[4]; Homo sapiens, ASPC1, 72 h, AsPC-1, Pancreas, growth inhibition (GI) curve, single agent, 72 h",12.2 nM
same,IC50,[4]; [27],23.1 nM
same,Emax,[4]; [28],69%
same,GI50,"[4]; Homo sapiens, ASPC1, AsPC-1, Pancreas, growth inhibition (GI) curve, single agent, 72 h",13.7 nM
same,Emax,[4]; [29],96%
same,Best CI,[4]; [30],0.89
same,Best CI Level,[4]; [30],20
same,Bliss Volume,[4]; [30],−2.24
same,HSA volume,[4]; [30],−0.18
same,Loewe Volume,[4]; [30],−0.80
same,Synergy Score,[4]; [30],0.83
same,EC50,"[5]; Homo sapiens, SW48, 72 h, SW48 KRAS (G12D/+), Colorectal, Additional Single Agent Responses (inhibition, % I), 72 h, read-out: EC50",4.1 nM
same,EC50,"[5]; Homo sapiens, SW48, 72 h, SW48 KRAS (G12D/+), Colorectal, growth inhibition (GI) curve, single agent, 72 h, read-out: EC50",4.2 nM
same,IC50,"[5]; Homo sapiens, SW48 KRAS (G12D/+), Colorectal, Additional Single Agent Responses (inhibition, % I), 72 h",4.8 nM
same,Emax,"[5]; Homo sapiens, SW48 KRAS (G12D/+), Colorectal, Additional Single Agent Responses, 72 h, read-out: Max Response (% I)",86%
same,GI50,"[5]; Homo sapiens, SW48 KRAS (G12D/+), Colorectal, growth inhibition (GI) curve, single agent, 72 h",4.3 nM
same,Emax,"[5]; Homo sapiens, SW48 KRAS (G12D/+), Colorectal, growth inhibition (GI), single agent, 72 h, read-out: Max Response (% GI)",148%
same,Response Area,[5]; [31],3.32
same,Response Area,[5]; [32],5.01
same,Best CI,[5]; [33],0.06
same,Bliss Volume,[5]; [33],8.36
same,HSA volume,[5]; [33],1.07
same,Loewe Volume,[5]; [33],3.66
same,Synergy Score,[5]; [33],13.34
same,Best CI,[5]; [34],0.08
same,Bliss Volume,[5]; [34],0.41
same,HSA volume,[5]; [34],0.61
same,Loewe Volume,[5]; [34],2.08
same,Synergy Score,[5]; [34],4.06
same,Best CI Level,[5]; [34],80%
